{
  "source": "patent US10364270B2",
  "about": "“Eye-care peptide, its composition and method of using the same” (PRO SUNFUN BIOTECH RESEARCH AND DEVELOPMENT CO., LTD., priority 2017, dated 2019)",
  "system": "HCEC cells",
  "assay": "MTT assay, viability of HCEC cells",
  "type": "cell-based, Human",
  "procedure": "Human corneal epithelial cell line, HCEC, was cultured in complete KSF containing keratinocyte-serum free medium, 5 ng/ml human recombinant EGF, 0.05 mg/ml bovine pituitary extract, 0.005 mg/ml insulin and 500 ng/ml hydrocortisone under 5% CO2 at 37° C.\nCells (2×10^4) in 1 ml complete KSF were seeded in 12-well plates with or without Peptide NO. 12. Seventy microliters of 5 mg/ml 3-(4,5-dimethyl-2-thiazolyl)-2,5-diphenyl-2H-tetrazolium bromide solution (MTT; Sigma) was added to each well for the indicated times and incubated at 37° C. for 3 hours, after which 700 μl 10% SDS in 0.01 N HCl was added to dissolve the MTT formazan crystals. The resultant optical density was measured spectrophotometrically at dual wavelengths, 550 and 630 nm.",
  "note": "Peptide text beside a SMILES is read from it.",
  "data": [
    {"smiles": "CC(C)C[C@H](NC(=O)[C@@H]1CCCN1C(=O)[C@H](CC(N)=O)NC(=O)[C@@H](N)CCCNC(=N)N)C(=O)N[C@@H](CCC(=O)O)C(=O)N[C@@H](CCC(=O)O)C(=O)N[C@H](C(=O)O)[C@@H](C)O", "note": "[Peptide NO. 12, ArgAsnProLeuGluGluThr] (H-RNPLEET-OH; N-terminus and C-terminus assumed)", "values": [
      {"measurement": "viability of HCEC cells", "setting": "24 hours, 5, 10, 25 and 50 μg/ml, FIG. 3", "result": "did not significantly affect viability of HCEC cells"},
      {"measurement": "viability of HCEC cells", "setting": "48 hours, 5, 10, 25 and 50 μg/ml, FIG. 4", "result": "did not significantly affect viability of HCEC cells"}
    ]}
  ]
}
